Laboratory results published in PMC8282797, “Strictly regulated agonist-dependent activation of AMPA-R is the key characteristic of TAK-653 for robust synaptic responses and cognitive improvement” (Scientific Reports, 2021).

What was measured:
rats = assay: Seizure and abnormal behavior of LY451646 and AMPA in rats; assay type: in vivo, rat; conditions: i.p.
poly-I:C mouse = assay: Social approach-avoidance test in poly-I:C mouse; assay type: in vivo; conditions: 0.3 mg/kg, p.o., 1 h prior to test
Method: Poly-I:C (5 mg/kg) dissolved in sterile pyrogen-free 0.9% NaCl (control) solution was administered to pregnant female C57BL/6J mice on gestation day 15 (GD15) via the intravenous route at the tail vein with a volume of 5 ml/kg.
The apparatus was a three-chamber gray acryl box (53 × 19 × 21.5 cm, outer chamber: 19.3 × 19 × 21.5 cm), and dividing walls were made from clear acryl plates with gates. In the two outer chambers, transparent acryl cylinders with small holes (cylinder: 8.2 cm φ × 20.5 cm, hole: 1.3 cm φ) were placed to avoid direct physical interaction between a target animal and a test animal. Target animals were C57BL/6 J mice of the same age as test animals and no previous contact with them. On the test day, TAK-653 (0.3 mg/kg, p.o.) or vehicle was administered 1 h before the testing session. Each test animal was introduced in the middle chamber of test apparatus for 3 min with the gates being closed by partitions. Then the partitions were removed gently for the test animal to explore all three chambers freely for 5 min. Sniffing index was calculated as the index of sociability using the following equation:
Sniffing index = (Sniffing time to cylinder containing target mouse (s) − Sniffing time to empty cylinder (s))/ (Total sniffing time (s)).

rGluA1i = assay: Ca2+ influx assay in rGluA1i CHO cells (species difference); assay type: cell-based, rat; conditions: 3 mM glutamate
Method: Ca^2+ influx assays using human GluA1/flip and human stargazin co-expressing CHO cells plated at 3 × 10^4 cells/well in 96-well Black Clear plates (Corning Incorporated, Corning, NY) were performed as previously described, with some modifications. For evaluation of the species difference, rat GluA1/flip expressing CHO cells were plated. For mutant channels, the human GluA1i S743A mutant was generated using the In-Fusion HD Cloning Kit (Takara Bio Inc., Kusatsu, Japan) according to the manufacturer's protocol and transiently introduced to CHO cells by Gene Pulser II Electroporation System (Bio-Rad Laboratories, Inc., Hercules, CA). Relative increases of intracellular Ca^2+ levels were monitored for 3 min with a fluorometric imaging plate reader (CellLux, Perkin Elmer Life and Analytical Sciences, Inc., Shelton, CT). […]
Human GluA1/flip and human stargazin co-expressing CHO cells were plated at 3×10^4 cells/well in 96-well Black Clear plate (Corning Incorporated, Corning, NY). […] Relative increases of intracellular Ca^2+ levels by compounds in the presence and absence of 3 mM L-glutamate were monitored for 3 min by fluorometric imaging plate reader (CellLux, Perkin Elmer Life and Analytical Sciences, Inc., Shelton, CT). Activity of compound was defined as integration value of fluorescence value of each detection point. […] EC50 values were calculated by logistic regression analysis.

[1] = Pharmacokinetics in monkeys; assay type: in vivo; conditions: monkey, plasma, po, 0.03 mg/kg

SMILES | Abnormal behavior (rats; 10 mg/kg) | Seizure (rats; 30 mg/kg) | Sniffing index (poly-I:C mouse) | Fold difference in the EC50 value between rat and human receptors (rGluA1i) | Tmax [1] | half-life [1]
Cc1onc(O)c1CC(N)C(=O)O (stereo not drawn) [AMPA, alpha-amino-3-hydroxy-5-methyl-4-isoxazole-propionic acid] | abnormal behavior such as head turning | induced seizure | – | – | – | –
CC1=CN2CCS(=O)(=O)N=C2C(c2ccc(OC3CCCCC3)cc2)=N1 [TAK-653, 9-[4-(Cyclohexyloxy)phenyl]-7-methyl-3,4-dihydropyrazino[2,1-c][1,2,4]thiadiazine 2,2-dioxide] | – | – | significantly improved | 1.1 fold | 8 h | 9.4 ± 3.8 h
